Data published in US10226508B2, “Treatment of chronic ulcers” (Promore Pharma AB, priority 2013, dated 2019).
“Also recorded” adds a separate entry of the source. Like-named read-outs stand apart in the source and are kept apart here.

Columns and labels:
[1] = system: HTH VLUs (hard-to-heal venous leg ulcers); assay: Double-blind, randomised, placebo-controlled Phase I/II safety and pilot-dose response study of LL-37 in HTH VLUs; assay type: in vivo, human; settings: for Estimated healing rate constant (cm^2/day) Mean (95% C.I.): 25 μL/cm^2 topical every third day, 4 weeks, exponential decay model, placebo 0.007
Experimental: A double-blind, randomised, placebo-controlled, Phase I/II safety and pilot-dose response study was conducted on human subjects. The first subject was enrolled in August 2012 and the last subject completed in April 2013.
Study subjects comprised either male subjects of at least 18 years of age, or post-menopausal or clinically sterile women, with VLUs or combined venous-arterial ulcers with a predominant venous component.
Target wounds with an area greater than 30 cm^2 and less than 2 cm^2 were excluded initially. However, in order to increase the inclusion rate and decrease the total study time, criteria were amended after randomisation of 21 subjects, to exclude areas greater than 40 cm^2 and less than 1 cm^2. If an eligible subject had more than one wound satisfying the entry criteria, the investigator identified the wound with the most appropriate size, shape and localisation as target wound. Only one wound per subject was treated in the study.
During the 3-week run-in period, subjects received, every third day (±1) and not more than two times per week, six applications (in total) of a placebo preparation (see below) in combination with standard compression bandaging (as defined by the Swedish MPA), comprising elastic bandaging and appropriate dressing to control wound exudation.
If the ulcerative area decrease was greater than between 7% and 13% (depending on size) per week relative to the start of the run-in period, the ulcer was not defined as HTH for the purposes of this study. In such cases, subjects were excluded from the study and the outcome was recorded as screening failure.
After a run-in period, 34 eligible subjects underwent baseline assessments before randomisation to receive active treatment (one of three treatment strengths) or placebo.
Following the above run-in period, a 4-week treatment period was initiated, including 8 visits, an end-of-treatment visit 3 days (±1 day) after the last treatment, and a follow-up visit after an additional 4 weeks (±1 to 7 days).
Subjects were randomised into four treatment groups to receive LL-37 (one of three alternative strengths), or placebo.
Wound bed preparation prior to treatment included debridement of non-viable tissue, treatment of clinical infection and selection of the most appropriate dressing (see below). The wound was cleaned using tap water, gently dried with a gauze pad and, if necessary, curettage was applied prior to application of the trial product or placebo.
0.7 mL of a sterile concentrate of LL-37 in water at concentrations of 2.5, 8 or 16 mg of LL-37 per mL was provided in sealed glass vials (APL, Umeå, Sweden), which were stored prior to the trial at between 2 and 8° C. Immediately before application to the wound, this was diluted with […] of a viscous diluent solution comprising 13.1% (w/w) of polyvinyl alcohol in acetate buffered saline (APL AB) to give final concentrations of either 0.5, 1.6 or 3.2 mg/mL, respectively. Placebo comprised exactly the same solution, but without LL-37 present.
The diluted viscous liquid solution of active treatment or placebo was applied topically at an amount of 25 μL/cm^2 with a 1 mL graded syringe at the centre of the cleansed and dried ulcer, and distributed evenly over the entire ulcer area using the rounded head of the syringe plunger that had been used in mixing the study drug.
After a 5-minute wait (to prevent LL-37 or placebo from being absorbed by the dressing material), the above procedure was followed by application of a dressing and a compression bandage.
The above procedure was repeated every third day (±1) over a 4 week treatment period, not more than two times per week, representing a total of eight applications.
The study assessed the rate of wound healing, pain at wound site both at the time of dressing and over the previous 24 hours using Visual Analogue Scale (VAS). […]

angiogenesis = settings: synthetic LL-37, subcutaneous injection; Koczulla et al 2003; cited from earlier work
acute wounds = settings: synthetic LL-37, repeated topical administration in acute wounds; cited from earlier work
wound healing = settings: topical treatment; mice treated with a corticosteroid; Ramos et al 2011; cited from earlier work
[2] = system: acute wounds of diabetic mice; settings: cited from earlier work

LL-37
wound healing response (conclusion) ([1]; LL-37 0.5 mg/mL (13 μg per cm^2 of wound area) every third day): marked and significant improvement in wound healing
Estimated healing rate constant (cm^2/day) Mean (95% C.I.) ([1]; LL-37 0.5 mg/mL): 0.039 cm^2/day
broken stick analysis: reduction in wound area after randomisation versus run-in ([1]; LL-37 0.5 mg/mL, p<0.001, FIG. 1): statistically significant improved healing
wound healing response (conclusion) ([1]; LL-37 1.6 mg/mL (40 μg per cm^2 of wound area) every third day): marked and significant improvement in wound healing
Estimated healing rate constant (cm^2/day) Mean (95% C.I.) ([1]; LL-37 1.6 mg/mL): 0.019 cm^2/day
mean reduction in wound area ([1]; LL-37 1.6 mg/mL, from randomization to the end of the study): 5.29 cm^2
broken stick analysis: reduction in wound area after randomisation versus run-in ([1]; LL-37 1.6 mg/mL, p=0.011, FIG. 1): statistically significant improved healing
clinical benefit in chronic ulcers ([1]; LL-37 3.2 mg/mL, 80 μg/cm^2 every third day (26.7 μg/cm^2 for each day)): do not effectively treat chronic ulcers; also recorded: no clinical benefit
Estimated healing rate constant (cm^2/day) Mean (95% C.I.) ([1]; LL-37 3.2 mg/mL): 0.004 cm^2/day
Wound Area (cm^2), Mean ± S.D ([1]; Visit 1 (Screening), before treatment, LL-37 0.5 mg/mL group (N = 8)): 4.59 ± 2.024 cm^2
Wound Area (cm^2), Mean ± S.D ([1]; Visit 1 (Screening), before treatment, LL-37 1.6 mg/mL group (N = 9)): 7.84 ± 4.789 cm^2
Wound Area (cm^2), Mean ± S.D ([1]; Visit 1 (Screening), before treatment, LL-37 3.2 mg/mL group (N = 8)): 8.41 ± 6.450 cm^2
Wound Area (cm^2), Mean ± S.D ([1]; Visit 3 (placebo run-in), LL-37 0.5 mg/mL group (N = 8)): 4.39 ± 1.995 cm^2
Wound Area (cm^2), Mean ± S.D ([1]; Visit 3 (placebo run-in), LL-37 1.6 mg/mL group (N = 9)): 8.14 ± 4.997 cm^2
Wound Area (cm^2), Mean ± S.D ([1]; Visit 3 (placebo run-in), LL-37 3.2 mg/mL group (N = 8)): 7.83 ± 6.163 cm^2
Wound Area (cm^2), Mean ± S.D ([1]; Visit 6 (Randomisation), baseline, LL-37 0.5 mg/mL group (N = 8)): 5.11 ± 1.732 cm^2
Wound Area (cm^2), Mean ± S.D ([1]; Visit 6 (Randomisation), baseline, LL-37 1.6 mg/mL group (N = 9)): 7.69 ± 4.072 cm^2
Wound Area (cm^2), Mean ± S.D ([1]; Visit 6 (Randomisation), baseline, LL-37 3.2 mg/mL group (N = 8)): 8.50 ± 6.919 cm^2
Wound Area (cm^2), Mean ± S.D ([1]; Visit 8, LL-37 0.5 mg/mL (N = 8)): 3.89 ± 1.329 cm^2
Wound Area (cm^2), Mean ± S.D ([1]; Visit 8, LL-37 1.6 mg/mL (N = 9)): 5.83 ± 2.156 cm^2
Wound Area (cm^2), Mean ± S.D ([1]; Visit 8, LL-37 3.2 mg/mL (N = 8)): 7.95 ± 6.270 cm^2
Wound Area (cm^2), Mean ± S.D ([1]; Visit 10, LL-37 0.5 mg/mL (N = 8)): 3.18 ± 1.549 cm^2
Wound Area (cm^2), Mean ± S.D ([1]; Visit 10, LL-37 1.6 mg/mL (N = 9)): 5.34 ± 1.943 cm^2
Wound Area (cm^2), Mean ± S.D ([1]; Visit 10, LL-37 3.2 mg/mL (N = 8)): 7.03 ± 5.063 cm^2
Wound Area (cm^2), Mean ± S.D ([1]; Visit 12, LL-37 0.5 mg/mL (N = 8)): 2.26 ± 1.061 cm^2
Wound Area (cm^2), Mean ± S.D ([1]; Visit 12, LL-37 1.6 mg/mL (N = 9)): 4.59 ± 2.266 cm^2
Wound Area (cm^2), Mean ± S.D ([1]; Visit 12, LL-37 3.2 mg/mL (N = 8)): 5.93 ± 5.317 cm^2
Wound Area (cm^2), Mean ± S.D ([1]; Visit 14, LL-37 0.5 mg/mL (N = 8)): 1.93 ± 1.262 cm^2
Wound Area (cm^2), Mean ± S.D ([1]; Visit 14, LL-37 1.6 mg/mL (N = 9)): 3.86 ± 3.029 cm^2
Wound Area (cm^2), Mean ± S.D ([1]; Visit 14, LL-37 3.2 mg/mL (N = 8)): 5.89 ± 4.784 cm^2
Wound Area (cm^2), Mean ± S.D ([1]; Visit 15 (End of Treatment), LL-37 0.5 mg/mL (N = 8)): 1.98 ± 1.276 cm^2
Wound Area (cm^2), Mean ± S.D ([1]; Visit 15 (End of Treatment), LL-37 1.6 mg/mL (N = 9)): 3.34 ± 3.166 cm^2
Wound Area (cm^2), Mean ± S.D ([1]; Visit 15 (End of Treatment), LL-37 3.2 mg/mL (N = 8)): 5.85 ± 4.648 cm^2
Wound Area (cm^2), Mean ± S.D ([1]; Visit 16 (End of Study, follow-up approx. 4 weeks after last treatment), LL-37 0.5 mg/mL (N = 8)): 1.33 ± 1.209 cm^2
Wound Area (cm^2), Mean ± S.D ([1]; Visit 16 (End of Study, follow-up approx. 4 weeks after last treatment), LL-37 1.6 mg/mL (N = 9)): 2.40 ± 3.269 cm^2
Wound Area (cm^2), Mean ± S.D ([1]; Visit 16 (End of Study, follow-up approx. 4 weeks after last treatment), LL-37 3.2 mg/mL (N = 8)): 6.19 ± 4.770 cm^2
difference of estimated healing rate versus the placebo group ([1]; highest dose, LL-37 3.2 mg/mL): no statistically significant difference
broken stick analysis: post-randomisation rate versus run-in ([1]; highest dose, LL-37 3.2 mg/mL, FIG. 1): No significant difference
difference of healing rate constant (exponential decay model) versus the placebo group ([1]; intermediate dose, LL-37 1.6 mg/mL, p=0.088): 3 fold
difference of healing rate constant (exponential decay model) versus the placebo group ([1]; lowest dose, LL-37 0.5 mg/mL, p=0.003): 6 fold
effect on angiogenesis (angiogenesis): stimulates angiogenesis
effect on inflammatory cells (acute wounds): attracts inflammatory cells to the surrounding tissue
effect on wound healing (wound healing): stimulated wound healing
effect in acute wounds of diabetic mice ([2]; one study, Carretero et al 2008): beneficial effect
effect in acute wounds of diabetic mice ([2]; other studies, Steinstraesser et al 2012): failed to show an effect
